Measurements: article PMC10893631, “Receptor-based pharmacophore modeling, molecular docking, synthesis and biological evaluation of novel VEGFR-2, FGFR-1, and BRAF multi-kinase inhibitors” (BMC Chemistry, 2024)

Key:
Assay in all cases: NCI SRB growth inhibition (single dose 10 µM / five-dose)
Format in all cases: cell-based, human
786–0 = conditions: Homo sapiens; for inhibition at 10 µM: 786–0 (Renal cancer), read-out: GI%; for GI50: 786–0, Renal cancer, five-dose
How it was run: (§1)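 Cytotoxicity in the NCI panel of sixty human tumour lines was measured by sulforhodamine B protein staining. Each agent was tested in DMSO-derived dilutions at five concentrations, and TGI was read where treated absorbance equalled time-zero absorbance.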

BT-549 = conditions: Homo sapiens; for inhibition at 10 µM: BT-549 (Breast cancer), read-out: GI%; for GI50: BT-549, Breast cancer, five-dose
How it was run: as §1

CAKI-1 = conditions: Homo sapiens; for inhibition at 10 µM: CAKI-1 (Renal cancer), read-out: GI%; for GI50: CAKI-1, Renal cancer, five-dose
How it was run: as §1

DU-145 = conditions: Homo sapiens; for inhibition at 10 µM: DU-145 (Prostate cancer), read-out: GI%; for GI50: DU-145, Prostate cancer, five-dose
How it was run: as §1

HCT-15 = conditions: Homo sapiens; for inhibition at 10 µM: HCT-15 (Colon cancer), read-out: GI%; for GI50: HCT-15, Colon cancer, five-dose
How it was run: as §1

HL-60(TB) = conditions: Homo sapiens; for inhibition at 10 µM: HL-60(TB) (Leukemia), read-out: GI%; for GI50: HL-60(TB), Leukemia, five-dose
How it was run: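 Three dose–response parameters were calculated per compound, among them TGI, defined at Ti = Tz. Percentage growth came from SRB absorbance normalised to time-zero and control wells, with negative values indicating cell kill below Tz.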

HOP-62 = conditions: Homo sapiens; for inhibition at 10 µM: HOP-62 (Non-small cell lung cancer), read-out: GI%; for GI50: HOP-62, Non-small cell lung cancer, five-dose
How it was run: as §1

HT29 = conditions: Homo sapiens, HT-29; for inhibition at 10 µM: HT29 (Colon cancer), read-out: GI%; for GI50: HT29, Colon cancer, five-dose
How it was run: as §1

KM12 = conditions: Homo sapiens; for inhibition at 10 µM: KM12 (Colon cancer), read-out: GI%; for GI50: KM12, Colon cancer, five-dose
How it was run: as §1

LOX IMVI = conditions: Homo sapiens; for inhibition at 10 µM: LOX IMVI (Melanoma), read-out: GI%; for GI50: LOX IMVI, Melanoma, five-dose
How it was run: as §1

MDA-MB-231/ATCC = conditions: Homo sapiens; for inhibition at 10 µM: MDA-MB-231/ATCC (Breast cancer), read-out: GI%; for GI50: MDA-MB-231/ATCC, Breast cancer, five-dose
How it was run: as §1

MDA-MB-435 = conditions: Homo sapiens; for inhibition at 10 µM: MDA-MB-435 (Melanoma), read-out: GI%; for GI50: MDA-MB-435, Melanoma, five-dose
How it was run: as §1

MDA-MB-468 = conditions: Homo sapiens; for inhibition at 10 µM: MDA-MB-468 (Breast cancer), read-out: GI%; for GI50: MDA-MB-468, Breast cancer, five-dose
How it was run: as §1

NCI-H522 = conditions: Homo sapiens; for inhibition at 10 µM: NCI-H522 (Non-small cell lung cancer), read-out: GI%; for GI50: NCI-H522, Non-small cell lung cancer, five-dose
How it was run: as §1

NCI/ADR-RES = conditions: Homo sapiens; for inhibition at 10 µM: NCI/ADR-RES (Ovarian cancer), read-out: GI%
How it was run: as §1

RXF 393 = conditions: Homo sapiens; for inhibition at 10 µM: RXF 393 (Renal cancer), read-out: GI%; for GI50: RXF 393, Renal cancer, five-dose
How it was run: as §1

SF-268 = conditions: Homo sapiens; for inhibition at 10 µM: SF-268 (CNS cancer), read-out: GI%; for GI50: SF-268, CNS cancer, five-dose
How it was run: as §1

SF-539 = conditions: Homo sapiens; for inhibition at 10 µM: SF-539 (CNS cancer), read-out: GI%; for GI50: SF-539, CNS cancer, five-dose
How it was run: as §1

SK-MEL-5 = conditions: Homo sapiens; for inhibition at 10 µM: SK-MEL-5 (Melanoma), read-out: GI%; for GI50: SK-MEL-5, Melanoma, five-dose
How it was run: as §1

SK-OV-3 = conditions: Homo sapiens; for inhibition at 10 µM: SK-OV-3 (Ovarian cancer), read-out: GI%; for GI50: SK-OV-3, Ovarian cancer, five-dose
How it was run: as §1

SNB-19 = conditions: Homo sapiens; for inhibition at 10 µM: SNB-19 (CNS cancer), read-out: GI%; for GI50: SNB-19, CNS cancer, five-dose
How it was run: as §1

SNB-75 = conditions: Homo sapiens; for inhibition at 10 µM: SNB-75 (CNS cancer), read-out: GI%
How it was run: as §1

SR = conditions: Homo sapiens; for inhibition at 10 µM: SR (Leukemia), read-out: GI%; for GI50: SR, Leukemia, five-dose
How it was run: as §1

COc1cccc(C=NNC(=O)c2ccc3[nH]c(-c4ccc(Cl)cc4)nc3c2)c1O [8r, 2-(4-Chlorophenyl)-N'-(2-hydroxy-3-methoxybenzylidene)-1H-benzo[d]imidazole-5-carbohydrazide]
inhibition at 10 µM (786–0): > 100% | GI50 (786–0): 1490 nM | inhibition at 10 µM (BT-549): > 100% | GI50 (BT-549): 1360 nM | inhibition at 10 µM (CAKI-1): > 100% | GI50 (CAKI-1): 2310 nM | inhibition at 10 µM (DU-145): > 100% | GI50 (DU-145): 1990 nM | inhibition at 10 µM (HCT-15): 95.2% | GI50 (HCT-15): 2720 nM | inhibition at 10 µM (HL-60(TB)): > 100% | GI50 (HL-60(TB)): 1950 nM | inhibition at 10 µM (HOP-62): > 100% | GI50 (HOP-62): 1040 nM | inhibition at 10 µM (HT29): > 100% | GI50 (HT29): 4170 nM | inhibition at 10 µM (KM12): > 100% | GI50 (KM12): 1660 nM | inhibition at 10 µM (LOX IMVI): > 100% | GI50 (LOX IMVI): 1180 nM | inhibition at 10 µM (MDA-MB-231/ATCC): > 100% | GI50 (MDA-MB-231/ATCC): 1820 nM | inhibition at 10 µM (MDA-MB-435): > 100% | GI50 (MDA-MB-435): 1810 nM | inhibition at 10 µM (MDA-MB-468): > 100% | GI50 (MDA-MB-468): 1440 nM | inhibition at 10 µM (NCI-H522): > 100% | GI50 (NCI-H522): 1170 nM | inhibition at 10 µM (NCI/ADR-RES): 49.3% | GI50 (NCI/ADR-RES; NCI/ADR-RES, Ovarian cancer, five-dose): > 100000 nM | inhibition at 10 µM (RXF 393): > 100% | GI50 (RXF 393): 1410 nM | inhibition at 10 µM (SF-268): > 100% | GI50 (SF-268): 1210 nM | inhibition at 10 µM (SF-539): > 100% | GI50 (SF-539): 1070 nM | inhibition at 10 µM (SK-MEL-5): > 100% | GI50 (SK-MEL-5): 1340 nM | inhibition at 10 µM (SK-OV-3): > 100% | GI50 (SK-OV-3): 2080 nM | inhibition at 10 µM (SNB-19): > 100% | GI50 (SNB-19): 1310 nM | inhibition at 10 µM (SNB-75): > 100% | inhibition at 10 µM (SR): > 100% | GI50 (SR): 500 nM

COc1ccc(OC)c(C=NNC(=O)c2ccc3[nH]c(-c4ccc(Cl)cc4)nc3c2)c1 [8t, 2-(4-Chlorophenyl)-N'-(2,5-dimethoxybenzylidene)-1H-benzo[d]imidazole-5-carbohydrazide]
inhibition at 10 µM (786–0): 26.6% | inhibition at 10 µM (BT-549): 25.7% | inhibition at 10 µM (CAKI-1): 38.4% | inhibition at 10 µM (DU-145): 52% | inhibition at 10 µM (HCT-15): 58.2% | inhibition at 10 µM (HL-60(TB)): 12.9% | inhibition at 10 µM (HOP-62): 18.4% | inhibition at 10 µM (HT29): 20.3% | inhibition at 10 µM (KM12): 23.3% | inhibition at 10 µM (LOX IMVI): 34.6% | inhibition at 10 µM (MDA-MB-231/ATCC): 89.7% | inhibition at 10 µM (MDA-MB-435): 14.3% | inhibition at 10 µM (MDA-MB-468): 30.4% | inhibition at 10 µM (NCI-H522): 40.9% | inhibition at 10 µM (NCI/ADR-RES): 11.2% | inhibition at 10 µM (RXF 393): 96.5% | inhibition at 10 µM (SF-268): 43% | inhibition at 10 µM (SF-539): 45.3% | inhibition at 10 µM (SK-MEL-5): 68.8% | inhibition at 10 µM (SK-OV-3): 15.1% | inhibition at 10 µM (SNB-19): 45.7% | inhibition at 10 µM (SNB-75): 27.2% | inhibition at 10 µM (SR): 31.4%

COc1cc(C=NNC(=O)c2ccc3[nH]c(-c4ccc(Cl)cc4)nc3c2)cc(OC)c1OC [8u, 2-(4-Chlorophenyl)-N'-(3,4,5-trimethoxybenzylidene)-1H-benzo[d]imidazole-5-carbohydrazide]
inhibition at 10 µM (786–0): > 100% | GI50 (786–0): 4880 nM | inhibition at 10 µM (BT-549): > 100% | GI50 (BT-549): 2690 nM | inhibition at 10 µM (CAKI-1): 97.1% | GI50 (CAKI-1): 11200 nM | inhibition at 10 µM (DU-145): > 100% | GI50 (DU-145): 6770 nM | inhibition at 10 µM (HCT-15): 44.3% | GI50 (HCT-15): 73000 nM | inhibition at 10 µM (HL-60(TB)): 67.8% | GI50 (HL-60(TB)): 3900 nM | inhibition at 10 µM (HOP-62): > 100% | GI50 (HOP-62): 4680 nM | inhibition at 10 µM (HT29): > 100% | GI50 (HT29): 2980 nM | inhibition at 10 µM (KM12): > 100% | GI50 (KM12): 4500 nM | inhibition at 10 µM (LOX IMVI): > 100% | GI50 (LOX IMVI): 4670 nM | inhibition at 10 µM (MDA-MB-231/ATCC): > 100% | GI50 (MDA-MB-231/ATCC): 3390 nM | inhibition at 10 µM (MDA-MB-435): > 100% | GI50 (MDA-MB-435): 4130 nM | inhibition at 10 µM (MDA-MB-468): > 100% | GI50 (MDA-MB-468): 3270 nM | inhibition at 10 µM (NCI-H522): > 100% | GI50 (NCI-H522): 4900 nM | inhibition at 10 µM (NCI/ADR-RES): 24.3% | inhibition at 10 µM (RXF 393): > 100% | GI50 (RXF 393): 2220 nM | inhibition at 10 µM (SF-268): > 100% | GI50 (SF-268): 4400 nM | inhibition at 10 µM (SF-539): > 100% | GI50 (SF-539): 2020 nM | inhibition at 10 µM (SK-MEL-5): > 100% | GI50 (SK-MEL-5): 2830 nM | inhibition at 10 µM (SK-OV-3): > 100% | GI50 (SK-OV-3): 15000 nM | inhibition at 10 µM (SNB-19): > 100% | GI50 (SNB-19): 3420 nM | inhibition at 10 µM (SNB-75): > 100% | GI50 (SNB-75; SNB-75, CNS cancer, five-dose): 1280 nM | inhibition at 10 µM (SR): > 100% | GI50 (SR): 3760 nM
